Measured values taken from US7763596B2, “Selective glucocorticoid receptor agonists” (The University of Manchester, priority 2000, dated 2010).

Legend:
Type in all cases: cell-based
[1] = molecular target: T1, GR ligand binding domain / SRC-1 (Homo sapiens, UniProt P04150); assay: SRC-1 association assay by mammalian two-hybrid analysis; conditions: 100 nM
T1 construct: expressed in transfected cells
T1 sequence (P04150 524-758 limits assumed): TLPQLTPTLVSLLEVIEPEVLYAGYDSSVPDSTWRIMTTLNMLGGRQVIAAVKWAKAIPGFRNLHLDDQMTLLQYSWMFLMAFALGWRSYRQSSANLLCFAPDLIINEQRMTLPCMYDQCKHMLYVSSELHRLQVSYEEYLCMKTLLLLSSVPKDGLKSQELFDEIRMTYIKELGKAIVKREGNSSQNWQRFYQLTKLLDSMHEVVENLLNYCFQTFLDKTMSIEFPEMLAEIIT
Source text: SRC-1 is an important co-activator of GR action that associates with the GR in a ligand dependant manner. The ability of SRC-1 to associate with the GR in this manner can be used as a measure of potency of ligand mediated transactivation. To perform this assay plasmids that generated VP16-GR ligand binding domain (LBD) and GAL4-SRC-1 fusion proteins and a GAL4 binding luciferase reporter gene construct were transfected into in a cell line lacking GR and deficient in endogenous SRC-1. The GAL4-SRC-1 fusion protein could bind to specific sites upstream of the luciferase reporter gene construct. If the SRC-1 fusion protein associated with the ligand bound VP16-GRLBD fusion protein then the VP-16 activation domain augmented the luciferase gene expression.

[2] = molecular target: T2, progesterone receptor (PRB) (Homo sapiens, UniProt P06401); assay: Progestogen activity assay using progesterone receptor transactivation; conditions: 100 nM, AH3-luc reporter, COS7
T2 construct: expressed in transfected cells; host or cells: COS 7
T2 sequence (P06401 1-933): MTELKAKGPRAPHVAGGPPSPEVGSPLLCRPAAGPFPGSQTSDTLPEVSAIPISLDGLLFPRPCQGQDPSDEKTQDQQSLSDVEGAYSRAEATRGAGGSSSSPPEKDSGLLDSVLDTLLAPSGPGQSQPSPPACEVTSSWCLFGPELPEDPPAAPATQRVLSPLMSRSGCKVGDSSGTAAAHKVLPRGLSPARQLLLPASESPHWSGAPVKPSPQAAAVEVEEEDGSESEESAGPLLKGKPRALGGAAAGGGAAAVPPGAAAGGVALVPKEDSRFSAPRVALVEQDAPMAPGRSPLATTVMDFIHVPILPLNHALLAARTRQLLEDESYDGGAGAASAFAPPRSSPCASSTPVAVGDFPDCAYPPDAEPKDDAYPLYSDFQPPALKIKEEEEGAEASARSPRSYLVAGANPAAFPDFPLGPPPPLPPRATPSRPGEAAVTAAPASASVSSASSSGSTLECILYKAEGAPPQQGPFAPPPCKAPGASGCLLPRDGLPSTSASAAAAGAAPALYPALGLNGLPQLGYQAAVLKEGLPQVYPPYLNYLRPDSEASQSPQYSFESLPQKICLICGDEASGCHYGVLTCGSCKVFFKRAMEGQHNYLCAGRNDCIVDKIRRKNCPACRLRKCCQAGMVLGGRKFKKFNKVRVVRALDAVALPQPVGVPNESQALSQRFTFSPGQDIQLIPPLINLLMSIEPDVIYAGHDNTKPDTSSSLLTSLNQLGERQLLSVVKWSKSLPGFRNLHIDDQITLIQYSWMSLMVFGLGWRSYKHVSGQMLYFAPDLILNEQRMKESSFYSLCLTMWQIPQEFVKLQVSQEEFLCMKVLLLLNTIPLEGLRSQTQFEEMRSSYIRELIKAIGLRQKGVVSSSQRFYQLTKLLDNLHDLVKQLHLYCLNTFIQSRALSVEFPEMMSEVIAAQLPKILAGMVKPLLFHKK
Source text: As the GR LBD has strong homology with the PR LBD there is a chance that any of the tested steroids of FIGS. 1 and 2A that activate one of these receptors may also activate the other. The presence of illegitimate progestogen activity associated with the steroids of FIGS. 1 and 2A was examined using a transactivation assay with the PR instead of the GR.
The PR was artificially expressed in a cell line lacking endogenous PR and a GRE “driving” a luciferase reporter gene was used to measure ligand dependent activation.
COS7 cells were transfected with 1 μg pSEO-PRB and 3 μg AH3-Luc per 10 cm tissue culture dish. The cells were plated out in to 24 well plates after transfection and the steroids of FIGS. 1 and 2A were added immediately to generate a final concentration of 100 nM. After 18 hour incubation the cells were lysed and a luciferase assay was performed.

glucocorticoid receptor [3] = molecular target: T3, glucocorticoid receptor (Homo sapiens, UniProt P04150); assay: Transactivation assay using artificially expressed glucocorticoid receptor in the COS 7 monkey kidney cell line (GRE luciferase); parameters: expressed in transfected cells; host or cells: COS 7 (African green monkey kidney, deficient in endogenous GR); conditions: 1, 10, 10 and 500 nM; FIG. 5
T3 sequence (P04150 1-777): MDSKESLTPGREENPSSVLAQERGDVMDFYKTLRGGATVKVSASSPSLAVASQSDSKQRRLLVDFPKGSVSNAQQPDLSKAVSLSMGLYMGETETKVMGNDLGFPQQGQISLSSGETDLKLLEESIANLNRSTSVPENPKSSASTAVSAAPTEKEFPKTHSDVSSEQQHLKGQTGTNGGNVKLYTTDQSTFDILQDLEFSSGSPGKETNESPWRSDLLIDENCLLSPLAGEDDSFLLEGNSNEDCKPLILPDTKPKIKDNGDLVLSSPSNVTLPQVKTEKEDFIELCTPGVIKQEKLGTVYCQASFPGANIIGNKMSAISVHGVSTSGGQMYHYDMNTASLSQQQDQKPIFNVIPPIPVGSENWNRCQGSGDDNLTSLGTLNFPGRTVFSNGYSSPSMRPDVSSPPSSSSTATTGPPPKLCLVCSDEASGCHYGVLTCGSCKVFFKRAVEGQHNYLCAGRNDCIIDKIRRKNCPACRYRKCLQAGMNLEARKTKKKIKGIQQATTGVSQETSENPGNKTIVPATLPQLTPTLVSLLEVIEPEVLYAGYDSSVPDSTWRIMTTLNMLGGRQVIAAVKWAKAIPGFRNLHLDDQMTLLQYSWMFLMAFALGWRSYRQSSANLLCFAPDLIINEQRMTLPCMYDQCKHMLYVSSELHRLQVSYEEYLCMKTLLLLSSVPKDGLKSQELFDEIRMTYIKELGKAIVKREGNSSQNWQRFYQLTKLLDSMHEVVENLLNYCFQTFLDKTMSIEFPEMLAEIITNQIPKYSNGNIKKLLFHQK
Protocol: (§1) All transfections were performed using lipofectamine plus (Gibco BRL), according to the manufacturers' instructions, as previously described^1. Briefly, all cells were seeded at 5×10^5 per 10 cm tissue culture plate 18 hours before transfection, the next day the relevant plasmids were mixed with serum free medium and “Plus” reagent (Gibco BRL) and incubated for 15 mins, lipofectamine reagent was added and the mix was incubated for a further 15 mins, this mix was added to the cells on serum free medium in the 10 cm tissue culture plates and left for 3 hours, the cells were then trypsinised and divided into 24 well plates, the cells were left to recover overnight and were treated with steroid for 16 hours before harvest. All experiments were performed from one transfection in triplicate and on separate occasions with similar results.
(§2) The firefly luciferase gene catalyses the production of light from the substrate luciferin. When plasmid constructs containing this gene are transfected into cell lines the activity of the gene can be assessed by the intensity of the luminesence. The luciferase assay yields luminescence through an ATP-dependent oxidation of luciferin the amount of light produced can be measured by a luminometer and is a measure of gene activity (Davis, 1996). Light intensity was measured in a Luminometer (LB 9501, Berthold). The light intensity should be proportional to luciferase concentration in the range of 10^−16M (10 μg/L) to 10^−8M (1 mg/L). To measure the luminescence of the treated cells 150 μl of 1× reporter lysis buffer (RLB: 25 mM Tris phosphate pH7.8, 10 mM MgCl2, 15% Glycerol, 1% Triton, 1 mM EDTA) was added to the 24 well plates to lyse the cells and incubated at room temperature for 30 mins whilst being shaken. Then 100 μl of the room temperature cell extract were mixed with 100 μl of room temperature Luciferase Assay Reagent (LAR: 1 mM ATP, 0.3 mM D-Luciferin, 66% RLB). This reaction was mixed in a luminometer (LB 9501, Berthold) and the light produced was measured for a period of 5 seconds.
In this assay the GR was artificially expressed in a cell line lacking endogenous GR and a glucocorticoid response element (GRE) “driving” a luciferase reporter gene was used to measure ligand dependent activation.
COS7 cells were transfected with 1 μg pcDNA3-GR and 3 μg AH3-Luc per 10 cm tissue culture dish. The cells were plated out in to 24 well plates after transfection and the steroids were added immediately. After 18 hour incubation the cells were lysed and a luciferase assay was performed.

glucocorticoid receptor [4] = molecular target: T3, glucocorticoid receptor; assay: Transrepression assay using artificially expressed glucocorticoid receptor and P65 in the COS 7 cell line (NRE luciferase); parameters: expressed in transfected cells; host or cells: COS 7 (African green monkey kidney, deficient in endogenous GR); conditions: 1, 10 and 100 nM
Protocol: as §1, §2
To perform this assay the GR and p65 were artificially expressed in a cell line lacking GR and deficient in endogenous P65. The ability of P65 to activate an NFkB response element (NRE) “driving” a luciferase reporter gene could then be repressed by GR in a ligand dependent manner and, therefore, used to measure transrepression.
COS7 cells were transfected with 1 μg pcDNA3-GR and 3 μg NRE-Luc and 200 ng p65 per 10 cm tissue culture dish. The cells were plated out in to 24 well plates after transfection and left for 18 hours to recover before the steroids of FIGS. 1 and 2A were added. After another 18 hour incubation the cells were lysed and a luciferase assay was performed.

glucocorticoid receptor [5] = molecular target: T3, glucocorticoid receptor; assay: Type II antagonist activity assay: competition of dexamethasone transactivation; parameters: expressed in transfected cells; host or cells: COS 7 (African green monkey kidney, deficient in endogenous GR); conditions: 1, 10, 100 nM; 1 nM dexamethasone
Protocol: A type II antagonist should be able to compete agonist activity. As an antagonist has no ability to transactivate, competition can be measured by inhibition of an agonist in a transactivation assay.
As with the standard transactivation assay previously described, the GR was artificially expressed in a cell line lacking endogenous GR and a GRE “driving” a luciferase reporter gene was used to measure ligand dependent activation. COS7 cells were transfected with 1 μg pcDNA3-GR and 3 μg AH3-Luc per 10 cm tissue culture dish. The cells were plated out in to 24 well plates after transfection and the steroids were added immediately. […] Certain steroids from FIG. 2A were added at the same concentration to all sample wells. After 18 hour incubation the cells were lysed and a luciferase assay was performed.

Row | Compound | PRB reporter gene activation [2] | also measured
1 | CC1CC2C3CCC4=CC(=O)C=CC4(C)C3(F)C(O)CC2(C)C1(O)C(=O)NCc1ccccc1 (stereo not shown) [Compound K] | slightly increased reporter gene activation compared to that of dexamethasone | SRC-1 recruitment at the highest concentration tested [1]: significant response
2 | CNC(=O)C1(O)C(C)CC2C3CCC4=CC(=O)C=CC4(C)C3(F)C(O)CC21C (stereo not shown) [Compound M] | slightly increased reporter gene activation compared to that of dexamethasone | –
3 | CC1CC2C3CCC4=CC(=O)C=CC4(C)C3(F)C(O)CC2(C)C1(O)C(=O)COC(=O)Nc1ccccc1 (stereo not shown) [Compound N] | slightly increased reporter gene activation compared to that of dexamethasone | –
4 | CC1CC2C3CCC4=CC(=O)C=CC4(C)C3(F)C(O)CC2(C)C1(O)C(=O)COC(=O)Nc1ccc(F)cc1 (stereo not shown) [Compound S] | slightly increased reporter gene activation compared to that of dexamethasone | SRC-1 recruitment at the highest concentration tested [1]: significant response
5 | CCCN(CCC)C(=O)C1(O)C(C)CC2C3CCC4=CC(=O)C=CC4(C)C3(F)C(O)CC21C (stereo not shown) [P] | – | transactivation potential (luminescence) compared to dexamethasone, repeat experiment (glucocorticoid receptor [3]): “right shifted response” and a reduced maximum compared to dexamethasone; repression of P65 stimulation of an NFkB response element compared with dexamethasone (glucocorticoid receptor [4]): no effect at 1 and 10 nM with only a negligible repression at 100 nM
6 | CC#C[C@]1(O)CC[C@H]2[C@@H]3CCC4=CC(=O)CCC4=C3[C@@H](c3ccc(N(C)C)cc3)C[C@@]21C [RU486, reference compound] | – | maximal repression of transactivation (glucocorticoid receptor [5]): ~50%
7 | CC(=O)[C@H]1CC[C@H]2[C@@H]3CCC4=CC(=O)CC[C@]4(C)[C@H]3CC[C@]12C [progesterone, reference compound] | strong induction of the reporter gene | –
